Target: human FXa (Homo sapiens, UniProt P00742)
Test: Human activated coagulation factor X (FXa) inhibiting effect
Type: biochemical
Details: concentration at which the FXa effect was inhibited by 50%; substrate S-2765, 37° C., absorbance at 405 nm
Protocol: (1) Human Activated Coagulation Factor X (FXa) Inhibiting Effect
Method: A cuvette was charged with 225 μl of 0.05 M tris buffer (pH 8.3) containing 0.145 M sodium chloride and 2 mM calcium chloride, 5 μl of a sample (test compound dissolved in dimethyl sulfoxide) and 10 μl of human FXa (0.3 unit/ml), which were reacted at 37° C. for 10 minutes and then combined with 10 μl of a substrate (3 mM, S-2765) and further reacted at 37° C. for 10 minutes. hen the reaction was terminated by adding 25 μl of 50% aqueous acetic acid, and the change in the absorbance at 405 nm was determined using a spectrophotometer to calculate the concentration at which the FXa effect was inhibited by 50% (IC50)

Chain of human FXa (P00742 235-488 limits assumed): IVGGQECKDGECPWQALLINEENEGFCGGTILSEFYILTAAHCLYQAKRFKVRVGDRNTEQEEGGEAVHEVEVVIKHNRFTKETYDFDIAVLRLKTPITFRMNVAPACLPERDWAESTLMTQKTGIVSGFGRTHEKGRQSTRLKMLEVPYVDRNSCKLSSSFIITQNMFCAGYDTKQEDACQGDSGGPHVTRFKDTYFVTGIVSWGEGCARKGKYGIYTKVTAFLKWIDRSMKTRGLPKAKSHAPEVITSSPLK
Chain of human FXa (P00742 41-179 partner limits assumed): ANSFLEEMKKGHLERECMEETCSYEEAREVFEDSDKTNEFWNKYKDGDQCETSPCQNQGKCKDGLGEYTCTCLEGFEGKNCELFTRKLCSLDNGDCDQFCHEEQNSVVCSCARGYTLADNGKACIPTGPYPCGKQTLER

## O=C1CN(S(=O)(=O)C2=Cc3ccc(Cl)cc3OC2)CCN1NC1CCN(c2ccncc2)CC1 [Example 6]
  IC50: 5.8 nM

— patent publication US6723722B1, “Acylhydrazine derivatives, their production and use” (Takeda Chemical Industries, Ltd., priority 1999, dated 2004)
